# Laboratory results as given in publication PMC6642116, “Structural and functional analyses of hepatitis B virus X protein BH3-like domain and Bcl-xL interaction” (Nature Communications, 2019).
# Test system: HBV replication from pHBV1.3-Xnull replicon in HepG2 cells
# Assay: HBV production rescue assay, PEP-1 delivered peptides
# Format: cell-based
# Details: HepG2 + pHBV1.3-Xnull, peptide/PEP-1, 48 h
# Source text: Fig. 3 The HBx-BH3-like domain is critical for HBV production in HepG2 cells. a–e C-terminal biotinylated HBx-aa113–135 peptides (both wild-type (WT) and the W120A/L123A double mutant) were delivered into HepG2 cells transfected with pHBV1.3-Xnull using PEP-1 nanoparticles (Methods) and analyzed by streptavidin-FITC (fluorescein isothiocyanate) for transfection efficiency (a). Scale bar is 50 μm. An unrelated 23-aa peptide was used as a control (Control). The intracellular expression levels of HBV core antigen (HBcAg (b) and the levels of HBV e-antigen (HBeAg) (c), HBV S-antigen (HBsAg) (d), and HBV DNA (e) in the culture medium collected from HepG2 cells were measured (Methods). The results are shown as fold change to the WT HBx-aa113–135 peptide (WT). f–i) HepG2 cells were co-transfected with pHBV1.3-Xnull and pTT22m-HBx-WT (WT), pHBV1.3-Xnull and pTT22m-HBx(W120A/L123A), or pHBV1.3-Xnull and the pTT22m vector control (Control). Intracellular expression levels of HBcAg (f) and the levels of HBeAg (g), HBsAg (h), and HBV DNA (i) in the culture medium from HepG2 cells were measured similarly. The results are shown as fold change to the combination of pHBV1.3-Xnull and pTT22m-HBx-WT (WT). Data shown represent mean ± SD. Significance is indicated on the top. **P < 0.01, ***P < 0.001, ****P < 0.0001; two-tailed unpaired t tests (n = 3 biologically independent samples). Source data are provided as a Source Data file
# HepG2 cells were grown in Dulbecco’s modified Eagle’s medium (DMEM) with 10% Gibco fetal bovine serum. C-terminal biotinylated-labeled HBx peptides were transfected into HepG2 cells by pep-1[16], a peptide carrier for the delivery of biologically active proteins into mammalian cells. HBx peptides and pep-1 were firstly dissolved in DMEM to 1 mg/ml, then adjusted to 500 µl DMEM to a final concentration of 100 µg/ml, and incubated at 37 °C for 30 min in the tube. The incubated peptide mixture was added into pre-seeded HepG2 cells in a 24-well plate and incubated for another 30 min, and then washed five times by phosphate-buffered saline (PBS) to remove the free peptides. The transfected C-terminal biotinylated HBx peptides were detected by using streptavidin-FITC (fluorescein isothiocyanate) equipment (Thermo Fisher Scientific) following the standard immunostaining methods.
# Transfection of plasmids into HepG2 cells was carried out using X-tremeGENE HP DNA Transfection Reagent (Roche), following the manufacturer’s protocol. A transfection efficiency of 20–30% could be achieved. Cells were pre-seeded 24 h before transfections. pHBV1.3-HBx-null plasmid was transfected into HepG2 cells for 6 h, then HBx-aa113–135, HBx-aa113–135-(W120A, L123A), or control peptide was transfected by pep-1 carrier and incubated for additional 48 h without the removal of peptides. The culture media of the HepG2 cells were harvest for analysis.
# The levels of HBsAg, HBeAg, and HBcAg expression were measured by chemiluminescence, using Commercial Assay Kit (Wantai, Beijing, China). Northern blot analysis of HBV RNA, Southern blot analysis of HBV DNA, and real-time PCR quantification of HBV DNA are described in the Supplementary Methods.
substance,measurement,setting,value
"SSTTSTGPCKTCTTPAQGTSMFP-K-biotin [Control, equal-length unrelated control biotin-labeled peptide]",HBcAg in cells,replicate 1,0.472 fold-change to WT
same,HBeAg in culture medium,replicate 1,0.329 fold-change to WT
same,HBsAg in culture medium,replicate 1,0.215 fold-change to WT
same,Secreted HBV DNA,replicate 1,990600 Copies/mL
same,HBcAg in cells,replicate 2,0.663 fold-change to WT
same,HBeAg in culture medium,replicate 2,0.389 fold-change to WT
same,HBsAg in culture medium,replicate 2,0.227 fold-change to WT
same,Secreted HBV DNA,replicate 2,564700 Copies/mL
same,HBcAg in cells,replicate 3,0.512 fold-change to WT
same,HBeAg in culture medium,replicate 3,0.344 fold-change to WT
same,HBsAg in culture medium,replicate 3,0.207 fold-change to WT
same,Secreted HBV DNA,replicate 3,887700 Copies/mL
